Measurements taken from PubChem BioAssay AID274 (DTP/NCI, 2004).
Values joined by “and” are separate entries in the source; they are usually repeats but may differ in a detail not shown here. Equal values may be shown once. Inconclusive results and toxic doses are left out.

Tested on: BDF1 mice, Lewis lung carcinoma iv, survival T/C
Assay: NCI In Vivo Anticancer Drug Screen. Data for tumor model Lewis Lung Carcinoma (intravenous) in B6D2F1 (BDF1) mice
Settings: endpoint: median survival time, higher = longer survival
Experimental: The antitumor activity of compounds was measured in mice bearing transplantable tumors. Survival or tumor size were measured and the results are expressed as the measurement made in the treated group (T) divided by the measurement made in the vehicle treated control group (C). The tumor model used in this assay is Lewis Lung Carcinoma (intravenous) in B6D2F1 (BDF1) mice

[1] = dose: 12.5 mg/kg/injection, schedule: Q01DX009 (ip), vehicle: saline
[2] = dose: 100.0 mg/kg/injection, schedule: Q01DX009 (ip), vehicle: saline with Tween-80

CC1=C(/C=C/C(C)=C/C=C/C(C)=C/C(=O)O)C(C)(C)CCC1
T/C (dose: 4.0 mg/kg/injection, schedule: Q01DX005 (ip), vehicle: saline with Tween-80): 92 % of control
T/C (dose: 8.0 mg/kg/injection, schedule: Q01DX005 (ip), vehicle: saline with Tween-80): 95 % of control
T/C (dose: 16.0 mg/kg/injection, schedule: Q01DX005 (ip), vehicle: saline with Tween-80): 102 % of control
T/C (dose: 32.0 mg/kg/injection, schedule: Q01DX005 (ip), vehicle: saline with Tween-80): 91 % of control
T/C (dose: 128.0 mg/kg/injection, schedule: Q01DX005 (ip), vehicle: saline with Tween-80): 91 % of control

NNC(=S)N/N=C/c1ccccn1
T/C (dose: 1.56 mg/kg/injection, schedule: Q01DX009 (ip), vehicle: saline): 98 % of control
T/C (dose: 3.12 mg/kg/injection, schedule: Q01DX009 (ip), vehicle: saline): 102 % of control
T/C (dose: 6.25 mg/kg/injection, schedule: Q01DX009 (ip), vehicle: saline): 107 % of control
T/C [1]: 114 % of control

O=C(O)/C=C/C(=O)Nc1ccc(Cl)c(Cl)c1
T/C (dose: 12.5 mg/kg/injection, schedule: Q01DX009 (ip), vehicle: Klucel (hydroxypropylcellulose) (HPC)): 102 % of control
T/C (dose: 25.0 mg/kg/injection, schedule: Q01DX009 (ip), vehicle: Klucel (hydroxypropylcellulose) (HPC)): 99 % of control
T/C (dose: 50.0 mg/kg/injection, schedule: Q01DX009 (ip), vehicle: Klucel (hydroxypropylcellulose) (HPC)): 98 % of control
T/C (dose: 100.0 mg/kg/injection, schedule: Q01DX009 (ip), vehicle: Klucel (hydroxypropylcellulose) (HPC)): 104 % of control

CC(=O)C(O)N1C(=O)C=CC1=O (stereo not given)
T/C (dose: 0.62 mg/kg/injection, schedule: Q01DX009 (ip), vehicle: saline): 115 % of control
T/C (dose: 0.63 mg/kg/injection, schedule: Q01DX009 (ip), vehicle: saline): 95 % of control

[Cl][Pt+2][Cl].[NH-]CC1(C[NH-])CCCCC1
T/C (dose: 1.5 mg/kg/injection, schedule: Q01DX009 (ip), vehicle: saline): 96 % of control
T/C (dose: 3.0 mg/kg/injection, schedule: Q01DX009 (ip), vehicle: saline): 96 % of control
T/C (dose: 6.0 mg/kg/injection, schedule: Q01DX009 (ip), vehicle: saline): 102 % of control

CC1(C)CC23C4COC(=O)C2CCC1C3CC4=O (stereo not given)
T/C (dose: 1.5 mg/kg/injection, schedule: Q01DX009 (ip), vehicle: DMSO): 109 % of control
T/C (dose: 6.0 mg/kg/injection, schedule: Q01DX009 (ip), vehicle: DMSO): 161 % of control
T/C (dose: 12.0 mg/kg/injection, schedule: Q01DX009 (ip), vehicle: DMSO): 285 % of control
T/C (dose: 24.0 mg/kg/injection, schedule: Q01DX009 (ip), vehicle: DMSO): 185 % of control
T/C (dose: 48.0 mg/kg/injection, schedule: Q01DX009 (ip), vehicle: DMSO): 180 % of control

C=C1C(C)C2C(Cc3ccccc3)NC(=O)C23C(OC(C)=O)/C=C/C(C)(O)CC(C)C/C=C/C3C1O (stereo not given)
T/C (dose: 0.37 mg/kg/injection, schedule: Q01DX009 (ip), vehicle: Klucel (hydroxypropylcellulose) (HPC)): 93 % of control
T/C (dose: 0.38 mg/kg/injection, schedule: Q01DX009 (ip), vehicle: Klucel (hydroxypropylcellulose) (HPC)): 107 % of control
T/C (dose: 0.75 mg/kg/injection, schedule: Q01DX009 (ip), vehicle: Klucel (hydroxypropylcellulose) (HPC)): 102 % of control
T/C (dose: 1.5 mg/kg/injection, schedule: Q01DX009 (ip), vehicle: Klucel (hydroxypropylcellulose) (HPC)): 96 % of control and 105 % of control
T/C (dose: 3.0 mg/kg/injection, schedule: Q01DX009 (ip), vehicle: Klucel (hydroxypropylcellulose) (HPC)): 104 % of control and 106 % of control
T/C (dose: 6.0 mg/kg/injection, schedule: Q01DX009 (ip), vehicle: Klucel (hydroxypropylcellulose) (HPC)): 101 % of control and 110 % of control
T/C (dose: 12.0 mg/kg/injection, schedule: Q01DX009 (ip), vehicle: Klucel (hydroxypropylcellulose) (HPC)): 109 % of control

Cc1ncc([N+](=O)[O-])n1CCO
T/C (dose: 18.75 mg/kg/injection, schedule: Q01DX009 (ip), vehicle: Klucel (hydroxypropylcellulose) (HPC)): 93 % of control
T/C (dose: 37.5 mg/kg/injection, schedule: Q01DX009 (ip), vehicle: Klucel (hydroxypropylcellulose) (HPC)): 100 % of control
T/C (dose: 75.0 mg/kg/injection, schedule: Q01DX009 (ip), vehicle: Klucel (hydroxypropylcellulose) (HPC)): 95 % of control
T/C (dose: 150.0 mg/kg/injection, schedule: Q01DX009 (ip), vehicle: Klucel (hydroxypropylcellulose) (HPC)): 100 % of control
T/C (dose: 300.0 mg/kg/injection, schedule: Q01DX009 (ip), vehicle: Klucel (hydroxypropylcellulose) (HPC)): 91 % of control
T/C (dose: 600.0 mg/kg/injection, schedule: Q01DX009 (ip), vehicle: Klucel (hydroxypropylcellulose) (HPC)): 102 % of control

COc1cccc2c1C(=O)c1c(O)c3c(c(O)c1C2=O)C[C@@](O)(C(=O)CO)C[C@@H]3OC1CC(N)C(O)C(C)O1 (stereo not given in full)
T/C (dose: 0.12 mg/kg/injection, schedule: Q01DX009 (ip), vehicle: saline): 97 % of control
T/C (dose: 0.25 mg/kg/injection, schedule: Q01DX009 (ip), vehicle: saline): 99 % of control and 110 % of control and 90 % of control
T/C (dose: 0.5 mg/kg/injection, schedule: Q01DX009 (ip), vehicle: saline): 99 % of control and 106 % of control and 113 % of control
T/C (dose: 0.5 mg/kg/injection, schedule: Q04DX003 (ip), vehicle: saline): 100 % of control
T/C (dose: 0.88 mg/kg/injection, schedule: Q01DX009 (ip), vehicle: saline): 107 % of control
T/C (dose: 1.0 mg/kg/injection, schedule: Q01DX009 (ip), vehicle: saline): 100 % of control and 111 % of control and 280 % of control
T/C (dose: 1.0 mg/kg/injection, schedule: Q04DX003 (ip), vehicle: saline): 92 % of control and 95 % of control
T/C (dose: 1.26 mg/kg/injection, schedule: Q01DX009 (ip), vehicle: saline): 121 % of control
T/C (dose: 1.92 mg/kg/injection, schedule: Q04DX003 (ip), vehicle: saline): 111 % of control
T/C (dose: 2.0 mg/kg/injection, schedule: Q01DX001 (ip), vehicle: saline): 112 % of control and 122 % of control
T/C (dose: 2.0 mg/kg/injection, schedule: Q01DX009 (ip), vehicle: saline): 112 % of control and 115 % of control
T/C (dose: 2.0 mg/kg/injection, schedule: Q04DX003 (ip), vehicle: saline): 96 % of control and 110 % of control
T/C (dose: 2.57 mg/kg/injection, schedule: Q01DX009 (ip), vehicle: saline): 197 % of control
T/C (dose: 3.6 mg/kg/injection, schedule: Q01DX001 (im), vehicle: water): 113 % of control
T/C (dose: 3.9 mg/kg/injection, schedule: Q04DX003 (ip), vehicle: saline): 225 % of control
T/C (dose: 4.0 mg/kg/injection, schedule: Q01DX001 (ip), vehicle: saline): 114 % of control
T/C (dose: 4.0 mg/kg/injection, schedule: Q04DX003 (ip), vehicle: saline): 101 % of control and 105 % of control
T/C (dose: 4.8 mg/kg/injection, schedule: Q01DX001 (iv), vehicle: saline): 114 % of control and 115 % of control and 123 % of control
T/C (dose: 5.6 mg/kg/injection, schedule: Q04DX003 (ip), vehicle: saline): 253 % of control
T/C (dose: 6.0 mg/kg/injection, schedule: Q01DX001 (im), vehicle: water): 101 % of control
T/C (dose: 6.86 mg/kg/injection, schedule: Q01DX001 (iv), vehicle: saline): 151 % of control
T/C (dose: 8.0 mg/kg/injection, schedule: Q01DX001 (ip), vehicle: saline): 154 % of control and 169 % of control
T/C (dose: 8.0 mg/kg/injection, schedule: Q04DX003 (ip), vehicle: saline): 105 % of control
T/C (dose: 9.8 mg/kg/injection, schedule: Q01DX001 (iv), vehicle: saline): 195 % of control
T/C (dose: 14.0 mg/kg/injection, schedule: Q01DX001 (iv), vehicle: saline): 175 % of control and 333 % of control

C=CCCC(=O)CCCC(=O)O[C@@H]1[C@@H]2[C@H](CC1(C)C)[C@H](O)[C@@]13O[C@@H]1[C@H](O)[C@@]1(CO1)[C@@]23C
T/C (dose: 6.2 micrograms/kg/injection, schedule: Q01DX009 (ip), vehicle: Klucel (hydroxypropylcellulose) (HPC)): 116 % of control
T/C (dose: 12.5 micrograms/kg/injection, schedule: Q01DX009 (ip), vehicle: Klucel (hydroxypropylcellulose) (HPC)): 120 % of control
T/C (dose: 25.0 micrograms/kg/injection, schedule: Q01DX009 (ip), vehicle: Klucel (hydroxypropylcellulose) (HPC)): 107 % of control
T/C (dose: 50.0 micrograms/kg/injection, schedule: Q01DX009 (ip), vehicle: Klucel (hydroxypropylcellulose) (HPC)): 112 % of control

CCCCCCCCCCCCCCCCCC1=NC(C)CC(C)(C)O1 (stereo not given)
T/C (dose: 50.0 mg/kg/injection, schedule: Q01DX009 (ip), vehicle: saline with Tween-80): 106 % of control
T/C [2]: 103 % of control
T/C (dose: 200.0 mg/kg/injection, schedule: Q01DX009 (ip), vehicle: saline with Tween-80): 98 % of control

COC(OC(CO)C(O)S(=O)(=O)O)C(O)S(=O)(=O)O (stereo not given)
T/C [1]: 105 % of control
T/C (dose: 25.0 mg/kg/injection, schedule: Q01DX009 (ip), vehicle: saline): 106 % of control
T/C (dose: 50.0 mg/kg/injection, schedule: Q01DX009 (ip), vehicle: saline): 102 % of control
T/C (dose: 100.0 mg/kg/injection, schedule: Q01DX009 (ip), vehicle: saline): 99 % of control
T/C (dose: 400.0 mg/kg/injection, schedule: Q01DX009 (ip), vehicle: saline): 90 % of control

c1ccc2c3c(ccc2c1)Sc1ccc2ccccc2c1N3
T/C [2]: 111 % of control
T/C (dose: 400.0 mg/kg/injection, schedule: Q01DX009 (ip), vehicle: saline with Tween-80): 102 % of control
